# From US6770673B1, “Therapeutic uses of arglabin in combination with other chemotherapy agents” (priority 1997, dated 2004)
# Marks after values point to notes of the source that are not given here.
# What was measured:
# Geren's carcinosarcoma = experiment: Inhibition of tumor growth in implanted tumors; type: in vivo, mice and rats
# hepatocytes = experiment: Viability of primary cultures of normal cells, trypan blue exclusion; type: cell-based, mouse; details: 18 hours
# Experimental: (§1) Mouse mastocytoma (P-815), myeloma (Z-P3x63Ag8.653 and Pai) and human erthyroleukemia (K-562) cell lines were used. Primary cultures of normal mouse hepatocytes were isolated from mouse liver using collagenase. Mouse splenocytes were isolated using a glass homogenizer. Marrow cells were obtained by washing the bone marrow. See, for example, Shears, S. B. and Kirk, C. J. (1984), Biochem. J. 219:375-382.
# (§2) Cells were cultured in RPMI-1640 medium supplemented with 10% fetal calf serum, 100 mM L-glutamine and 50 μg/ml gentamycin at 37° C. under 5% CO2. Cells were seeded into 24-well plates at a density of 50,000 cells/well and grown until near confluency, approximately 2 days, then transferred to 96-well plates at the same density. […] Viability of the cells was determined by trypan blue exclusion. […] Approximately 25% of K-562 and X-653 cells survived at a concentration of 12 μg/ml, and the same proportion of P-815 cells survived at a concentration of about 25 μg/ml.
# (§3) Viability was measured by trypan blue exclusion. […] At a concentration of 320 μg/ml, the number of viable splenocytes was reduced by 50% in comparison to the control. At concentrations of 640 μg/ml and 1280 μg/ml, 40% and 10%, respectively, of the splenocytes were still viable. At these same concentrations, approximately 50% and 25% of hepatocytes were still viable. Marrow cells were more sensitive to dimethylaminoarglabin hydrochloride. At a concentration of 160 μg/ml, only about 50% of the marrow cells were still viable. Increasing the concentration to 320 μg/ml reduced the viability to about 25%.
# marrow cells = experiment: as above; type: cell-based, mouse; details: 18 hours
# Experimental: as §1, §2, §3
# splenocytes = experiment: as above; type: cell-based, mouse; details: 18 hours
# Experimental: as §1, §2, §3
# [1] = test system: end-stage (III-IV) cancer; experiment: First clinical trial, 51 patients
# Experimental: The patient population was 67.9% male and 32.1% female. […] Intrapleural administration was used for patients with pleurisy. Patients were given a very small dose and monitored for any signs of allergic reaction before proceeding. […] After 30-35 days, the dose was increased to 480 mg per day. […] It was estimated that the daily dose should be about 240-280 mg for typical cases. […] Additional courses of treatment were administered to some patients. Patient condition before treatment was rated on a scale of 1 to 3, where 1 was bedridden, 2 was a significant restriction on activity and 3 retained full activity. Therapeutic result was measured on a scale from 0 to 3, where 0 was no improvement, 1 was insignificant or improvement for less than a month, 2 was considerable improvement (25-50% reduction in tumor size) and 3 was sharp improvement (50-100% reduction in tumor size).
# [2] = LD50, intraperitoneal injection; type: in vivo; details: 2% solution in DMSO
# Excerpt: Overall, the compounds in this family have low toxicity and are tolerated at dosages exceeding the therapeutic dosage.
# [3] = test system: Sarcoma-45 resistant to prospidine; experiment: Inhibition of growth of resistant tumour strains; type: in vivo, rats; details: dose 50 mg/kg
# immune system [4] = experiment: Immunological indices in August rats with Pliss lymphosarcoma; type: in vivo; details: Increased; about 50 mg/kg IP daily for 10 days
# Excerpt: Additional immunological data were obtained from an “August” line of rats, weighing 140-160 g, with and without Pliss lymphosarcoma. […] Results are summarized in Table V. Overall, lyophilized-dimethylaminoarglabin hydrochloride stimulated delayed type hypersensitivity, but reduced all other studied indices in intact rats. In rats with Pliss Lymphosarcoma, the immune system was stimulated, as all studied indices increased.
# immune system [5] = experiment: Indices of patients' immunity, rozette forming and phagocytosis methods (Table X); type: in vivo, human
# Experimental: The indices of immune system were determined using rozette forming and phagocytosis methods. […] Eleven indices of cellular and humoral immunity were measured from each patient in order to evaluate immune status. The following indices were determined on 0.05 ml of peripheral blood: absolute and relative amount of T- and B-lymphocytes, amount of non-differentiated “zero” cells, adhesion and phagocyte activity of neutrophils, hemogram, level of serum immunoglobulins. Indices were determined before treatment, on days 2, 5 and 14 of treatment, and after treatment.
# Mean values of immunological indices were evaluated with regression analysis. Functional conditions of the immune system were estimated using integral indices such as a mean intensity (correlation) expressed in relative units.
structure (smiles),measurement,setting,value
CC1=CCC23OC2(C)CCC2C(CN(C)C)C(=O)OC2C13.Cl (stereo not shown) [Dimethylaminoarglabin hydrochloride],"Inhibition of Tumour Growth, % - Geren's carcinosarcoma",Geren's carcinosarcoma; dose 30 mg/kg,80.1%
same,"Inhibition of Tumour Growth, % - Geren's carcinosarcoma",Geren's carcinosarcoma; dose 50 mg/kg,83.3* %
same,hepatocytes still viable,hepatocytes; 640 μg/ml,approximately 50%
same,hepatocytes still viable,hepatocytes; 1280 μg/ml,about 25%
same,marrow cells still viable,marrow cells; 160 μg/ml,approximately 50%
same,marrow cells viability,marrow cells; 320 μg/ml,about 25%
same,number of viable splenocytes reduced in comparison to the control,splenocytes; 320 μg/ml,50%
same,splenocytes still viable,splenocytes; 640 μg/ml,40%
same,splenocytes still viable,splenocytes; 1280 μg/ml,10%
same,complaints at high dose,[1]; 480 mg per day,nausea and vomiting
same,patients with a considerable improvement,[1]; liver cancer,55.6%
same,patients with a considerable improvement,[1]; lung cancer,about 64%
same,patients with a considerable improvement,[1]; ovarian cancer,66%
same,patients with a considerable improvement,[1]; overall,approximately 30%
same,Note(s) - decrease in tumor,"[1]; patient 47, rectal cancer III stage, suppositories",50% decrease
same,hematopoiesis,[1]; patients,did not suppress hematopoiesis
same,toxicity,[1]; patients,little toxicity
same,taste reported immediately after administration,[1]; quickly dissipated,bitter taste
same,LD50,[2]; mice,190 to 220 mg/kg
same,LD50,[2]; rats,280 to 310 mg/kg
same,"Inhibition of Tumour Strains Growth, % - Resistant Forms - Sarcoma-45 to prospidine",[3],87.4*** %
same,"Delayed type hypersensitivity, Rats with Pliss Lymphosarcoma After Treatment",immune system [4],89.9-132.2%
same,"Hemagglutination (RHG), Rats with Pliss Lymphosarcoma After Treatment",immune system [4],82.2-142.6%
same,"Nitroblue tetrazolium (NBT), Rats with Pliss Lymphosarcoma After Treatment",immune system [4],79.2-175.4%
same,"Spontaneous-erythrocyte rosette forming (E-ROK), Rats with Pliss Lymphosarcoma After Treatment",immune system [4],94.8-162.5%
same,"level of non-differentiated ""zero"" cells",immune system [5]; 2nd-5th day of treatment,increased
same,percentage of T-lymphocytes and T-helper lymphocytes,immune system [5]; 2nd-5th day of treatment,reduced considerably
same,"immunoglobulins A, M and G",immune system [5]; after the treatment,increased amount
